Source: the NIST ThermoML archive (doi:10.1021/je050413l)
Values joined by “and” are separate entries in the source; they are usually repeats but may differ in a detail not shown here. Equal values may be shown once.

Experiments:
[1] = 303.15 K, Liquid; for speed of sound / viscosity: 101 kPa; for mass density: 101.33 kPa, Pycnometric method
[2] = φn = volume fraction of the nth substance listed; settings: 303.15 K, 101 kPa, Liquid
[3] = xn = mol fraction of the nth substance listed; settings: 303.15 K, 101 kPa, Liquid, Direct dilatometry

Cc1ccccc1Cl [2-chlorotoluene]
[1]
Settings	mass density [kg/m3]	speed of sound [m/s]	viscosity [mPa·s]
–	1072.77	1284	0.887

Cc1ccccc1Cl [2-chlorotoluene] + CC(=O)c1ccccc1
[2], φ2 = 0
Settings	speed of sound [m/s]	viscosity [mPa·s]
–	1284	0.887

Cc1ccccc1[N+](=O)[O-] [2-nitrotoluene]
[1]
Settings	mass density [kg/m3]	viscosity [mPa·s]
–	1153.26	1.911

Cc1ccccc1[N+](=O)[O-] [2-nitrotoluene] + CC(=O)c1ccccc1
Settings	excess molar volume [m3/mol]	speed of sound [m/s]	viscosity [mPa·s]
[2], φ2 = 0	–	–	1.911
[2], φ2 = 0.0805	–	2017	1.91
[2], φ2 = 0.1011	–	1997	1.903
[2], φ2 = 0.2132	–	1889	1.857
[2], φ2 = 0.3245	–	1803	1.817
[2], φ2 = 0.4197	–	1737	1.781
[2], φ2 = 0.5086	–	1681	1.747
[2], φ2 = 0.6196	–	1622	1.701
[2], φ2 = 0.7297	–	1568	1.652
[2], φ2 = 0.7911	–	1541	1.624
[2], φ2 = 0.8704	–	1508	1.582
[3], x2 = 0.0812	1.1e-08	–	–
[3], x2 = 0.1019	1.5e-08	–	–
[3], x2 = 0.2147	2.4e-08	–	–
[3], x2 = 0.3265	3.3e-08	–	–
[3], x2 = 0.4219	3.9e-08	–	–
[3], x2 = 0.5109	4.2e-08	–	–
[3], x2 = 0.6217	3.7e-08	–	–
[3], x2 = 0.7315	2.6e-08	–	–
[3], x2 = 0.7926	2e-08	–	–
[3], x2 = 0.8714	1.1e-08	–	–

Cc1cccc(Cl)c1 [3-chlorotoluene]
[1]
Settings	mass density [kg/m3]	speed of sound [m/s]	viscosity [mPa·s]
–	1065.22	1280	0.782

Cc1cccc(Cl)c1 [3-chlorotoluene] + CC(=O)c1ccccc1
Settings	excess molar volume, [3] [m3/mol]	speed of sound, [2] [m/s]	viscosity, [2] [mPa·s]
x2 = 0.0524	1e-08	–	–
x2 = 0.103	1.5e-08	–	–
x2 = 0.2141	2.3e-08	–	–
x2 = 0.3119	2.9e-08	–	–
x2 = 0.4266	3.3e-08	–	–
x2 = 0.5009	3.4e-08	–	–
x2 = 0.6174	3.2e-08	–	–
x2 = 0.705	2.8e-08	–	–
x2 = 0.8519	1.5e-08	–	–
x2 = 0.952	6e-09	–	–
φ2 = 0	–	1280	0.782
φ2 = 0.052	–	1297	0.891
φ2 = 0.1022	–	1315	0.901
φ2 = 0.2127	–	1346	1.002
φ2 = 0.3101	–	1370	1.073
φ2 = 0.4246	–	1395	1.16
φ2 = 0.4988	–	1412	1.222
φ2 = 0.6154	–	1431	1.31
φ2 = 0.7033	–	1438	1.37
φ2 = 0.8508	–	1449	1.458
φ2 = 0.9516	–	1455	1.503

Cc1cccc([N+](=O)[O-])c1 [3-nitrotoluene]
[1]
Settings	mass density [kg/m3]	viscosity [mPa·s]
–	1147.62	1.775

Cc1cccc([N+](=O)[O-])c1 [3-nitrotoluene] + CC(=O)c1ccccc1
Settings	excess molar volume [m3/mol]	speed of sound [m/s]	viscosity [mPa·s]
[2], φ2 = 0	–	–	1.775
[2], φ2 = 0.0972	–	1987	1.748
[2], φ2 = 0.116	–	1972	1.745
[2], φ2 = 0.2051	–	1892	1.731
[2], φ2 = 0.3085	–	1808	1.713
[2], φ2 = 0.4191	–	1737	1.694
[2], φ2 = 0.5383	–	1666	1.666
[2], φ2 = 0.6446	–	1608	1.64
[2], φ2 = 0.7076	–	1580	1.623
[2], φ2 = 0.7994	–	1539	1.594
[2], φ2 = 0.886	–	1503	1.564
[3], x2 = 0.0984	1.8e-08	–	–
[3], x2 = 0.1174	2.1e-08	–	–
[3], x2 = 0.2074	3e-08	–	–
[3], x2 = 0.3115	3.9e-08	–	–
[3], x2 = 0.4225	4.7e-08	–	–
[3], x2 = 0.5417	5e-08	–	–
[3], x2 = 0.6478	4.3e-08	–	–
[3], x2 = 0.7105	3.5e-08	–	–
[3], x2 = 0.8016	2.5e-08	–	–
[3], x2 = 0.8874	1.4e-08	–	–

Cc1ccc(Cl)cc1 [4-chlorotoluene]
[1]
Settings	mass density [kg/m3]	speed of sound [m/s]	viscosity [mPa·s]
–	1060.54	1271	0.9

Cc1ccc(Cl)cc1 [4-chlorotoluene] + CC(=O)c1ccccc1
Settings	excess molar volume, [3] [m3/mol]	speed of sound, [2] [m/s]	viscosity, [2] [mPa·s]
x2 = 0.087	1.6e-08	–	–
x2 = 0.1206	2e-08	–	–
x2 = 0.2175	2.7e-08	–	–
x2 = 0.3009	3.4e-08	–	–
x2 = 0.4017	4.1e-08	–	–
x2 = 0.5224	4.4e-08	–	–
x2 = 0.6211	3.9e-08	–	–
x2 = 0.7025	3.2e-08	–	–
x2 = 0.8214	2.1e-08	–	–
x2 = 0.8774	1.6e-08	–	–
φ2 = 0	–	1271	0.9
φ2 = 0.0807	–	1304	0.903
φ2 = 0.1193	–	1314	1.011
φ2 = 0.2153	–	1343	1.058
φ2 = 0.2982	–	1371	1.118
φ2 = 0.3986	–	1406	1.198
φ2 = 0.5192	–	1419	1.286
φ2 = 0.6181	–	1430	1.352
φ2 = 0.6998	–	1440	1.4
φ2 = 0.8195	–	1448	1.469
φ2 = 0.876	–	1453	1.496

CC(=O)c1ccccc1 [acetophenone]
[1]
Settings	mass density [kg/m3]	speed of sound	viscosity [mPa·s]
–	1019.43	1460 m/s and 1466 m/s	1.511

CC(=O)c1ccccc1 [acetophenone] + Cc1ccc(Cl)cc1
[2], φ1 = 1
Settings	speed of sound [m/s]	viscosity [mPa·s]
–	1460	1.511

CC(=O)c1ccccc1 [acetophenone] + Cc1cccc(Cl)c1
[2], φ1 = 1
Settings	speed of sound [m/s]	viscosity [mPa·s]
–	1460	1.511

CC(=O)c1ccccc1 [acetophenone] + Cc1cccc([N+](=O)[O-])c1
[2], φ1 = 1
Settings	speed of sound [m/s]	viscosity [mPa·s]
–	1466	1.511

CC(=O)c1ccccc1 [acetophenone] + Cc1ccccc1Cl
Settings	excess molar volume, [3] [m3/mol]	speed of sound, [2] [m/s]	viscosity, [2] [mPa·s]
x1 = 0.0901	6e-09	–	–
x1 = 0.151	9e-09	–	–
x1 = 0.2271	1.3e-08	–	–
x1 = 0.3205	1.6e-08	–	–
x1 = 0.4021	1.8e-08	–	–
x1 = 0.5219	2e-08	–	–
x1 = 0.6224	2e-08	–	–
x1 = 0.702	1.8e-08	–	–
x1 = 0.8194	1.5e-08	–	–
x1 = 0.9005	9e-09	–	–
φ1 = 0.09	–	1310	0.901
φ1 = 0.1508	–	1326	0.949
φ1 = 0.2269	–	1345	0.999
φ1 = 0.3202	–	1368	1.066
φ1 = 0.4018	–	1387	1.123
φ1 = 0.5216	–	1409	1.225
φ1 = 0.6221	–	1423	1.305
φ1 = 0.7017	–	1432	1.41
φ1 = 0.8192	–	1448	1.465
φ1 = 0.9004	–	1451	1.502
φ1 = 1	–	1460	1.511

CC(=O)c1ccccc1 [acetophenone] + Cc1ccccc1[N+](=O)[O-]
[2], φ1 = 1
Settings	speed of sound [m/s]	viscosity [mPa·s]
–	1460	1.511
